Data taken from paper PMC9940649, “Phytochemical Comparison of Medicinal Cannabis Extracts and Study of Their CYP-Mediated Interactions with Coumarinic Oral Anticoagulants” (Medical Cannabis and Cannabinoids, 2023).
Like-named read-outs stand apart in the source and are kept apart here.

Assays:
CYP2C9 [1] = molecular target: T1, CYP2C9 (Homo sapiens, UniProt P11712); test: in vitro; details: both, microsomes, pH 7.4
Protocol: (§1) Briefly, 96-well incubation plates were prepared by adding inhibitors, substrates, and extracts (all dissolved in ethanol) to the respective wells. The 96-well plates were then placed on a thermoshaker (37°C, 500 rpm) until full evaporation of the solvent. […] HLM were thawed on ice, diluted in 100 mM phosphate buffer (pH 7.4) (final concentration 0.2 mg/mL), and added to the incubation plate that was prepared with the inhibitors and substrates. For preincubation, the plates were shaken at 500 rpm on an orbital shaker for 15 min at 37°C. […] The formation of hydroxylated metabolites was followed using UHPLC-MS/MS quantification with electrospray ionization in positive mode, as described in online supplementary material 2.
(§2) GraphPad Prism, version 9.0.1, was used for fitting of IC50 curves (inhibitor vs. normalized response, variable slope).

CYP2C9 [2] = molecular target: T1, CYP2C9; test: in vitro; details: both, microsomes, pH 7.4; remark: listed apart in the source
Protocol: as §1, §2

[3] = at 0.5 mg/mL protein concentration; cited from earlier work
CYP2C9 [4] = molecular target: T1, CYP2C9; test: CYP inhibition assay in pooled HLM, specific substrate tolbutamide
Protocol: as §1, §2

CYP3A4 [5] = molecular target: T2, CYP3A4 (Homo sapiens, UniProt P08684); test: CYP inhibition assay in pooled HLM, specific substrate testosterone
T2 sequence (P08684 2-503 limits assumed): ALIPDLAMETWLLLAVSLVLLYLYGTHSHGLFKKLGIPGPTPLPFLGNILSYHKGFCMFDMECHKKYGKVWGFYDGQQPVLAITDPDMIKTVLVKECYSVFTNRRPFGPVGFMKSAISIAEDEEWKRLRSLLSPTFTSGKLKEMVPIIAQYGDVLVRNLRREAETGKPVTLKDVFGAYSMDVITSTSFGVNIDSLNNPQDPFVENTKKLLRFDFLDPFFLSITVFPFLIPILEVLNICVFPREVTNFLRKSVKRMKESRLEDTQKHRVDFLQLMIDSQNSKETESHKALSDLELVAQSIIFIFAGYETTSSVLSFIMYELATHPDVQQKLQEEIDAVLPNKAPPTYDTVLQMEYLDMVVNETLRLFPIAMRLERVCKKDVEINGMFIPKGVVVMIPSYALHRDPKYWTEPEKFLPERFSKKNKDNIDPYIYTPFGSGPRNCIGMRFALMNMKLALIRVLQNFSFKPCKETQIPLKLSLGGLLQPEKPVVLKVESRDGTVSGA
Protocol: as §1, §2

CYP3A4 [6] = molecular target: T2, CYP3A4; details: read-out: Literature IC50 in pooled HLM; substrate testosterone; ref PMID 32587099; cited from earlier work
CYP2C9 [7] = molecular target: T1, CYP2C9; details: read-out: Literature Ki in pooled HLM; substrate warfarin; ref PMID 21356216; cited from earlier work

T1 sequence (P11712 whole entry): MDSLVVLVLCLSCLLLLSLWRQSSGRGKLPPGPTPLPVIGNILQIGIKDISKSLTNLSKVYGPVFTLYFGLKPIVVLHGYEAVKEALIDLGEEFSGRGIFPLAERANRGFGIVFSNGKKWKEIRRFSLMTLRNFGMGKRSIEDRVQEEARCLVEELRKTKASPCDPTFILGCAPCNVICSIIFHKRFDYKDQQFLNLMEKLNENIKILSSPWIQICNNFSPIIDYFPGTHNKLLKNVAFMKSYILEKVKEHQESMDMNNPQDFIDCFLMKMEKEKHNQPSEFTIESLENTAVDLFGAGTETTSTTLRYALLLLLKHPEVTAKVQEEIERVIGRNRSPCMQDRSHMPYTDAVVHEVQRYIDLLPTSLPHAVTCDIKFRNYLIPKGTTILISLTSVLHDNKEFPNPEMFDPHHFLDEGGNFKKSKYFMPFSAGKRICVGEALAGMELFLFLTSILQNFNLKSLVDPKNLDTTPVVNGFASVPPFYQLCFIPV

| Structure (SMILES) | IC50 at 15 min (CYP2C9 [1]) [µM] | IC50 at 15 min (CYP2C9 [2]) [µM] | fraction unbound [3] | IC50 (CYP2C9 [4]) [µM] | IC50 (CYP3A4 [5]) [µM] | IC50 (CYP3A4 [6]) [µM] | Ki (CYP2C9 [7]) [µM] |
| --- | --- | --- | --- | --- | --- | --- | --- |
| C=C(C)[C@@H]1CCC(C)=C[C@H]1c1c(O)cc(CCCCC)cc1O [CBD (pure), cannabidiol] | > 100 | 47 | 0.12 |  |  |  |  |
| CCCCCc1cc(O)c2c(c1)OC(C)(C)[C@@H]1CCC(C)=C[C@@H]21 [THC (pure), Δ9-tetrahydrocannabinol] | 73.3 | 6.9 | 0.05 | 0.081 | 23.6 | 26.1 ± 6.78 | 1.5 |
